Series [1] concerns the target T1, PDE9A2 Q453E mutant (PDE9Q453E) (Homo sapiens, UniProt O76083, Q513E).
T1 construct: The catalytic domain of the PDE9Q453E mutant (10–15 mg/mL, amino acids 181–506); made in house; host or cells: E. coli BL21 (Codonplus)
The experiment in a line: PDE9A2 enzymatic assay, IC50 of inhibitors (3H-cGMP substrate). Type of series: biochemical. As to the method:
(§1) Each measurement was repeated two times. The reaction was carried out at room temperature for 15 min and then terminated by the addition of 0.2 M ZnSO4 and 0.2 M Ba(OH)2. […] Vmax and KM values were calculated by nonlinear regression on the curve of velocity versus substrate concentration and also by Eadie-Hofstee plot. […] The IC50 values were calculated by nonlinear regression.

Series [2] deals with T2, PDE9A2 E406A mutant (Homo sapiens, UniProt O76083, E466A).
T2 construct: The coding region for residues 181-506 of PDE9A2 was amplified by PCR; inferred from vector pET15b and Ni-NTA purification) (N); made in house; host or cells: E. coli BL21 (Codonplus)
Described as above. Type of series: biochemical. As to the method:
as §1

The target in series [3] is T3, wild type PDE9A2 catalytic domain (Homo sapiens, UniProt O76083).
T3 construct: The coding region for residues 181-506 of PDE9A2 was amplified by PCR; inferred from vector pET15b and Ni-NTA purification) (N); made in house; host or cells: E. coli BL21 (Codonplus)
Described as above. Type of series: biochemical. As to the method: as §1

Series [4] has as its target T2, PDE9A2 E406A mutant. Put plainly: Enzymatic assay, kinetic parameters with cAMP and cGMP as substrates. Format: biochemical. As to the method:
as §1

Series [5] concerns the target T1, PDE9A2 Q453E mutant (PDE9Q453E). The series is described as above. Format: biochemical. The protocol:
as §1

Series [6] concerns the target T3, wild type PDE9A2 catalytic domain. Described as above. To be noted: substrate. Type of series: biochemical. As to the method: as §1
In a further series the test system is PDE5A Q817A mutant. The settings on record: PDE5A Q817A versus wild type; cited from earlier work.
Series [7] deals with the molecule itself. The experiment in a line: crystal structure; PDE9Q453E catalytic domain (10-15 mg/mL) co-crystallised with 2 mM IBMX, hanging drop, 2.0 M Na formate, 0.1 M HEPES pH 7.5, 5% xylitol, 4°C; (S)-BAY73-6691 complex by soaking; two molecules in the asymmetric unit.
Setting [8] is: E406A compared with wild type enzyme.

Several values for one entry are separate records, joined by “and”; a condition that tells them apart may be missing. Equal values may be shown once. Read-outs that look alike come from different tables or passages of the source.

Usually IC50 stands for the midpoint of a concentration-inhibition curve. What is called Km is the concentration of substrate that gives half-maximal velocity. In general, Vmax refers to the top rate of the reaction or transport when substrate is in excess.

T3 sequence (O76083 241-566): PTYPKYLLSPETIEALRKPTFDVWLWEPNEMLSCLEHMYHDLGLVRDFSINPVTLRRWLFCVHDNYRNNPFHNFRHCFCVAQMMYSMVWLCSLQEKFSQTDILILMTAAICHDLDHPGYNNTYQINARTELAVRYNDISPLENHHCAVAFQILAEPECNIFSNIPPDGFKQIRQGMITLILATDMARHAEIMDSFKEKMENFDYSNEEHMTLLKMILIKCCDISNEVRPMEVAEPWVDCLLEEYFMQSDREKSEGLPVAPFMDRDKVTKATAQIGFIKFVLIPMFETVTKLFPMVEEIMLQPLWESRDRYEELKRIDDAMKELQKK
T2 sequence (O76083 241-566 E466A): as the sequence (O76083 241-566) above, with E226A counted along it

For `C[C@@H](Cc1nc2c(cnn2-c2ccccc2Cl)c(=O)[nH]1)C(F)(F)F` [(S)-BAY73-6691, 1-(2-chlorophenyl)-6-(3,3,3-trifluoro-2-methylpropyl)-1H-pyrazolo [3,4-d]pyrimidin-4(5H)-one], the “fold increase of IC50 (affinity decrease), Q453E mutant versus wild type” value in series [1] (Q453E IC50 relative to wild type IC50) was > 1800 fold and 1800 fold.
For the molecule `CC(C)Cn1c(=O)n(C)c(=O)c2[nH]cnc21` [IBMX, 3-isobutyl-1-methylxanthine], the IC50 worked out at 31.7 ± 1.1 µM on PDE9A2 E406A mutant [2] and 53.9 ± 1.1 µM in series [3].
For `CCCOc1ccccc1-c1nc2nn[nH]c2c(=O)[nH]1` [Zaprinast], the IC50 on PDE9A2 E406A mutant [2] (E406A mutant, 30 nM 3H-cGMP, read-out: IC50) was 7.6 ± 1.1 µM; in series [1] (Q453E mutant, 30 nM 3H-cGMP), 53.7 ± 1.2 µM; in series [3] (wild type enzyme, 30 nM 3H-cGMP, read-out: IC50), 15.9 ± 1.2 µM.
As for `Nc1nc2c(ncn2[C@@H]2O[C@@H]3COP(=O)(O)O[C@H]3[C@H]2O)c(=O)[nH]1` [cGMP], on PDE9A2 E406A mutant [4] (setting [8]), the “fold reduction of apparent affinity, E406A versus wild type” value is 2 fold and the “fold reduction of catalytic activity, E406A versus wild type” value stood at 2 fold. Moreover, at PDE9A2 E406A mutant [4] (E406A, substrate), the Km worked out at 0.311 ± 0.04 µM, the Vmax is 0.129 ± 0.004 µmol/mg/min and the kcat worked out at 0.08±0.00 S^−1. Moreover, in series [5] (Q453E compared with wild type enzyme), the “fold loss of enzymatic efficacy kcat/KM, Q453E versus wild type” value is recorded as “about 50 fold”. In series [5] (Q453E, substrate), the Km was 2.8 ± 0.18 µM, the Vmax was found to be 0.139 ± 0.003 µmol/mg/min and the kcat was 0.09±0.00 S^−1. Besides, in series [6], the Km was 0.113 ± 0.013 µM, the maximal velocity (Vmax) was determined as 0.285 ± 0.008 µmol/mg/min and the kcat was determined as 0.18±0.00 S^−1. In the series with PDE5A Q817A mutant, the “fold reduction of cGMP affinity by Q817A mutation” value is given as “about 60 fold”.

B1: catalytic domain of the PDE9A2 Q453E mutant (amino acids 181-506) (domain or fragment, human, UniProt O76083-2 181-506, looked up)
chain: PTYPKYLLSPETIEALRKPTFDVWLWEPNEMLSCLEHMYHDLGLVRDFSINPVTLRRWLFCVHDNYRNNPFHNFRHCFCVAQMMYSMVWLCSLQEKFSQTDILILMTAAICHDLDHPGYNNTYQINARTELAVRYNDISPLENHHCAVAFQILAEPECNIFSNIPPDGFKQIRQGMITLILATDMARHAEIMDSFKEKMENFDYSNEEHMTLLKMILIKCCDISNEVRPMEVAEPWVDCLLEEYFMQSDREKSEGLPVAPFMDRDKVTKATAEIGFIKFVLIPMFETVTKLFPMVEEIMLQPLWESRDRYEELKRIDDAMKELQKK
notes: phosphodiesterase 9A, isoform PDE9A2, human, catalytic domain, residues 181-506, GenBank BC009047; numbers count on: PDE9A2; also called PDE9Q453E; PDE9 Q453E mutant; source: E. coli BL21 (Codonplus), purified (Ni-NTA, Q-Sepharose, Sephacryl S300)
Regarding B1, the binding result in series [7] is on record as “binds”.

(Values after article PMC3069055, “Structural Asymmetry of Phosphodiesterase-9, Potential Protonation of a Glutamic Acid, and Role of the Invariant Glutamine” (PLoS ONE, 2011).)
